# In patent publication US8859527B2 (priority 2009, dated 2014):
# Where two headings read alike, the source gives them in different places.
# Tests used:
# colon cancer HT-29 = settings: cited from earlier work
# [1] = system: HL-60 (human leukemia cell line); assay: in vitro growth inhibition of tumor cells, HL-60; assay type: cell-based; settings: for Inhibition effects on in vitro growth: 48 hours
# Method: The tumor strains are A-549 (human lung adenocarcinoma cell line), BGC-823 (human gastric cancer cell line), C-6 (rat neurogliocytoma cell line), Hep G2 (human hepatic cancer cell line), HL-60 (human leukemia cell line), K-562 (human erythremia cell line) and Hela (human cervical cancer cell line). […] The drug was prepared as a stock solution of 10^−2 M by using physiological saline and diluted into the test solution in a gradient composed of five concentrations: C1 5×10^−5 M, C2 10^−5 M, C3 10^−6 M, C4 10^−7 M and C5 10^−8 M.
# Experimental method: different tumor cells in exponential growth phase are inoculated in 96-well plates in a certain amount and the selected samples are added after the cells are cultured for 24 hours (suspension cells can be directly added after being inoculated), after the cells are incubated at 37° C. and 5% CO2 for another 48 hours, […] is added for further incubation for another 4 hours, and finally the samples are examined on a microplate reader after dissolving with DMSO.
# [2] = system: human non-small cell lung cancer H460 xenograft tumor
# Method: The test article: the inclusion complex of DPT and SBE-β-CD, the content is 5.05%. Preparation Method: it is dissolved in a proper amount of saline after gentle shaking and the concentration is 0.4 mg/ml (which is the test solution for the 8 mg/kg group); other concentrations are prepared by diluting the stock solution of 0.4 mg/ml to the required concentration with physiological saline.
# The control article: Etoposide injection produced by Qilu Pharmaceutical Co., Ltd. the batch number is 8060012EV, specification: 5 ml:0.1 g. Preparation Method: Etoposide injection is a kind of transparent sticky liquid and it is diluted with a proper amount of physiological saline and gently shaken and prepared as a homogeneous solution, and the concentration is 1 mg/ml.
# Dosage setting: the high dosage group of DPT is 8 mg/kg, the medium dosage group of DPT is 4 mg/kg and the low dosage group of DPT is 2 mg/kg. The dosage for the positive control group of Etoposide injection is 20 mg/kg.
# Experimental animals: source, germline and strain: BALB/c nude mice are provided by the Institute of Experimental Animals, Chinese Academy of Medical Sciences. Age: 35-40 days; body weight: 18-24 g; gender: male.
# Transplanted tumor: the transplanted tumor for human nonsmall-cell lung cancer H460 in nude mice, and it is established by inoculating the human nonsmall-cell lung cancer H460 cell line hypodermically in the armpit of nude mice. 2×10^6 cells are inoculated.
# Human non-small cell lung cancer H460 cell line in exponential phase of growth is prepared as a cell suspension of 2×10^7/ml under sterile conditions, 0.1 ml thereof is inoculated hypodermically in the right armpit of nude mice. The diameters of the transplanted tumors in the nude mice are measured by a sliding caliper, and the animals are randomly divided into different groups when the tumors grow up to the amount of 100 to 300 mm^3. The antitumor efficacy of the test article is dynamically observed by measuring the diameter of the tumor. The diameters of the tumor are determined once for every two days. The administration volume is 0.4 ml/20 g. The mice are killed 21 days after administration, and the tumors are surgically isolated and weighed. The calculation formula for tumor volume (TV) is as follows: TV=½×a×b^2 Wherein a and b represents for the length and the width, respectively.
# The relative tumor volume (RTV) is calculated according to the measured results, and the calculation formula is as follows: RTV=Vt/V0. Wherein V0 is the tumor size measured during grouping and drug administration (d0), Vt is the tumor size in every measurements. The evaluation parameter for antitumor activity is the relative tumor growth rate T/C (%) which is calculated according to the formula as follows:
# [formula] TRTV: the treatment group RTV; CRTV: the negative control group: RTV.
smiles,measurement,setting,value
"COc1cc([C@@H]2c3cc4c(cc3C[C@H]3COC(=O)[C@@H]32)OCO4)cc(OC)c1OC [DPT, Deoxypodophyllotoxin]",in vitro inhibition effects,colon cancer HT-29,in vitro inhibition effects
same,Inhibition effects on in vitro growth,[1]; 5 × 10^−5M,57.37%
same,Inhibition effects on in vitro growth,[1]; 10^−5M,39.41%
same,inhibition effects compared with Etoposide,[1]; 10^−5 to 10^−8 M,significant better than that of Etoposide
same,Inhibition effects on in vitro growth,[1]; 10^−6M,36.83%
same,Inhibition effects on in vitro growth,[1]; 10^−7M,29.27%
same,Inhibition effects on in vitro growth,[1]; 10^−8M,14.96%
same,Tumor volume,"[2]; 2 mg/kg iv, 0 d",296 ± 117 mm^3
same,RTV,"[2]; 2 mg/kg iv, 2 d",1.396 ± 0.251
same,T/C,"[2]; 2 mg/kg iv, 2 d",86.85%
same,Tumor volume,"[2]; 2 mg/kg iv, 2 d",427 ± 190 mm^3
same,RTV,"[2]; 2 mg/kg iv, 4 d",1.827 ± 0.373
same,T/C,"[2]; 2 mg/kg iv, 4 d",69.97%
same,Tumor volume,"[2]; 2 mg/kg iv, 4 d",554 ± 234 mm^3
same,RTV,"[2]; 2 mg/kg iv, 6 d",2.391 ± 0.764
same,T/C,"[2]; 2 mg/kg iv, 6 d",78.07%
same,Tumor volume,"[2]; 2 mg/kg iv, 6 d",729 ± 364 mm^3
same,RTV,"[2]; 2 mg/kg iv, 8 d",2.819 ± 0.559
same,T/C,"[2]; 2 mg/kg iv, 8 d",64.20%
same,Tumor volume,"[2]; 2 mg/kg iv, 8 d",807 ± 294 mm^3
same,Gross tumor volume,"[2]; 2 mg/kg iv, 10 d",1039 ± 316 mm^3
same,RTV,"[2]; 2 mg/kg iv, 10 d",3.750 ± 1.015
same,T/C,"[2]; 2 mg/kg iv, 10 d",74.96%
same,Gross tumor volume,"[2]; 2 mg/kg iv, 12 d",1424 ± 511 mm^3
same,RTV,"[2]; 2 mg/kg iv, 12 d",5.122 ± 1.538
same,T/C,"[2]; 2 mg/kg iv, 12 d",68.96%
same,RTV,"[2]; 2 mg/kg iv, 14 d",6.698 ± 2.532
same,T/C,"[2]; 2 mg/kg iv, 14 d",78.93%
same,Tumor volume,"[2]; 2 mg/kg iv, 14 d",1777 ± 386 mm^3
same,RTV,"[2]; 2 mg/kg iv, 16 d",8.626 ± 3.791
same,T/C,"[2]; 2 mg/kg iv, 16 d",86.49%
same,Tumor volume,"[2]; 2 mg/kg iv, 16 d",2249 ± 394 mm^3
same,RTV,"[2]; 2 mg/kg iv, 18 d",8.825 ± 3.701
same,T/C,"[2]; 2 mg/kg iv, 18 d",78.31%
same,Tumor volume,"[2]; 2 mg/kg iv, 18 d",2304 ± 405 mm^3
same,RTV,"[2]; 2 mg/kg iv, 21 d",9.776 ± 3.452
same,T/C,"[2]; 2 mg/kg iv, 21 d",84.89%
same,Tumor volume,"[2]; 2 mg/kg iv, 21 d",2591 ± 412 mm^3
same,Tumor volume,"[2]; 4 mg/kg iv, 0 d",272 ± 131 mm^3
same,RTV,"[2]; 4 mg/kg iv, 2 d",1.324 ± 0.236
same,T/C,"[2]; 4 mg/kg iv, 2 d",82.37%
same,Tumor volume,"[2]; 4 mg/kg iv, 2 d",381 ± 234 mm^3
same,RTV,"[2]; 4 mg/kg iv, 4 d",1.823 ± 0.427
same,T/C,"[2]; 4 mg/kg iv, 4 d",69.82%
same,Tumor volume,"[2]; 4 mg/kg iv, 4 d",521 ± 288 mm^3
same,RTV,"[2]; 4 mg/kg iv, 6 d",2.465 ± 0.699
same,T/C,"[2]; 4 mg/kg iv, 6 d",80.49%
same,Tumor volume,"[2]; 4 mg/kg iv, 6 d",729 ± 471 mm^3
same,RTV,"[2]; 4 mg/kg iv, 8 d",3.331 ± 0.641
same,T/C,"[2]; 4 mg/kg iv, 8 d",75.85%
same,Tumor volume,"[2]; 4 mg/kg iv, 8 d",906 ± 434 mm^3
same,Gross tumor volume,"[2]; 4 mg/kg iv, 10 d",1052 ± 475 mm^3
same,RTV,"[2]; 4 mg/kg iv, 10 d",4.041 ± 1.493
same,T/C,"[2]; 4 mg/kg iv, 10 d",80.78%
same,Gross tumor volume,"[2]; 4 mg/kg iv, 12 d",1261 ± 586 mm^3
same,RTV,"[2]; 4 mg/kg iv, 12 d",4.780 ± 1.070
same,T/C,"[2]; 4 mg/kg iv, 12 d",64.35%
